Species: Rattus norvegicus
Assay: DrugMatrix - Regimen: Daily Repeat
Format: toxicity, organism-based, Sprague-Dawley
Design: regimen Daily Repeat, gender Male, age 6-8 weeks
Settings: in vivo, po, route oral GAVAGE, vehicle 100 % WATER; for ABSOLUTE BASOPHIL / ABSOLUTE EOSINOPHIL / ABSOLUTE LYMPHOCYTE / ABSOLUTE MONOCYTE / ABSOLUTE SEGMENTED NEUTROPHIL / BASOPHIL / EOSINOPHIL / ERYTHROCYTE COUNT / HEMATOCRIT / HEMOGLOBIN / LEUKOCYTE COUNT / LYMPHOCYTE / MEAN CORPUSCULAR HEMOGLOBIN / MEAN CORPUSCULAR HEMOGLOBIN CONCENTRATION / MEAN CORPUSCULAR VOLUME / MONOCYTE / NEUTROPHIL / NUCLEATED RED BLOOD CELLS / PLATELET COUNT: tissue Blood; for ALANINE AMINOTRANSFERASE / ALBUMIN / ALKALINE PHOSPHATASE / ASPARTATE AMINOTRANSFERASE / BLOOD UREA NITROGEN / CARBON DIOXIDE / CHLORIDE / CHOLESTEROL / CREATINE PHOSPHOKINASE / CREATININE / GLUCOSE / LACTATE DEHYDROGENASE / LIPASE / PHOSPHORUS / POTASSIUM / SODIUM / TOTAL BILIRUBIN / TOTAL PROTEIN / URIC ACID: tissue Plasma
[1] = 0 mg/kg, 72 h, dose level Control, time 3 day
[2] = 0 mg/kg, 120 h, dose level Control, time 5 day
[3] = 14 mg/kg, 72 h, dose level Low, time 3 day

C[C@H]1c2cccc(O)c2C(=O)C2=C(O)[C@]3(O)C(=O)C(C(N)=O)=C(O)[C@@H](N(C)C)[C@@H]3[C@@H](O)[C@@H]21.O [DOXYCYCLINE]
ABSOLUTE BASOPHIL [1]: 0 CELLS/uL
ABSOLUTE EOSINOPHIL [1]: 86.33 CELLS/uL
ABSOLUTE LYMPHOCYTE [1]: 12090.17 CELLS/uL
ABSOLUTE MONOCYTE [1]: 166.67 CELLS/uL
ABSOLUTE SEGMENTED NEUTROPHIL [1]: 1090.17 CELLS/uL
BASOPHIL [1]: 0%
EOSINOPHIL [1]: 0.67%
ERYTHROCYTE COUNT [1]: 5.57 x10E6/uL
HEMATOCRIT [1]: 35.33%
HEMOGLOBIN [1]: 13.83 G/DL
LEUKOCYTE COUNT [1]: 13.43 x10E3/uL
LYMPHOCYTE [1]: 89.83%
MEAN CORPUSCULAR HEMOGLOBIN [1]: 24.88 pg
MEAN CORPUSCULAR HEMOGLOBIN CONCENTRATION [1]: 39.15 G/DL
MEAN CORPUSCULAR VOLUME [1]: 63.52 fL
MONOCYTE [1]: 1.17%
NEUTROPHIL [1]: 8.33%
NUCLEATED RED BLOOD CELLS [1]: 0 /100WBC
PLATELET COUNT [1]: 1181.33 x10E3/uL
ALANINE AMINOTRANSFERASE [1]: 48.33 u/L
ALBUMIN [1]: 4.1 G/DL
ALKALINE PHOSPHATASE [1]: 395 u/L
ASPARTATE AMINOTRANSFERASE [1]: 81.83 u/L
BLOOD UREA NITROGEN [1]: 15.83 mg/dL
CARBON DIOXIDE [1]: 24.17 mmol/L
CHLORIDE [1]: 103.83 MEQ/L
CHOLESTEROL [1]: 63.67 mg/dL
CREATINE PHOSPHOKINASE [1]: 372.83 u/L
CREATININE [1]: 0.18 mg/dL
GLUCOSE [1]: 173.83 mg/dL
LACTATE DEHYDROGENASE [1]: 188.33 u/L
LIPASE [1]: 9.5 u/L
PHOSPHORUS [1]: 11.95 mg/dL
POTASSIUM [1]: 5.99 MEQ/L
SODIUM [1]: 144.43 MEQ/L
TOTAL BILIRUBIN [1]: 0.15 mg/dL
TOTAL PROTEIN [1]: 5.95 G/DL
URIC ACID [1]: 1.82 mg/dL
ABSOLUTE BASOPHIL [2]: 0 CELLS/uL
ABSOLUTE EOSINOPHIL [2]: 26.67 CELLS/uL
ABSOLUTE LYMPHOCYTE [2]: 7583.83 CELLS/uL
ABSOLUTE MONOCYTE [2]: 131.33 CELLS/uL
ABSOLUTE SEGMENTED NEUTROPHIL [2]: 674.83 CELLS/uL
BASOPHIL [2]: 0%
EOSINOPHIL [2]: 0.33%
ERYTHROCYTE COUNT [2]: 5.78 x10E6/uL
HEMATOCRIT [2]: 36.48%
HEMOGLOBIN [2]: 14.03 G/DL
LEUKOCYTE COUNT [2]: 8.42 x10E3/uL
LYMPHOCYTE [2]: 89.83%
MEAN CORPUSCULAR HEMOGLOBIN [2]: 24.3 pg
MEAN CORPUSCULAR HEMOGLOBIN CONCENTRATION [2]: 38.52 G/DL
MEAN CORPUSCULAR VOLUME [2]: 63.15 fL
MONOCYTE [2]: 1.67%
NEUTROPHIL [2]: 8.17%
NUCLEATED RED BLOOD CELLS [2]: 0 /100WBC
PLATELET COUNT [2]: 1186.67 x10E3/uL
ALANINE AMINOTRANSFERASE [2]: 50.17 u/L
ALBUMIN [2]: 4.07 G/DL
ALKALINE PHOSPHATASE [2]: 367.5 u/L
ASPARTATE AMINOTRANSFERASE [2]: 81.67 u/L
BLOOD UREA NITROGEN [2]: 16.17 mg/dL
CARBON DIOXIDE [2]: 32.33 mmol/L
CHLORIDE [2]: 101.5 MEQ/L
CHOLESTEROL [2]: 65.33 mg/dL
CREATINE PHOSPHOKINASE [2]: 255.33 u/L
CREATININE [2]: 0.17 mg/dL
GLUCOSE [2]: 139.33 mg/dL
LACTATE DEHYDROGENASE [2]: 95 u/L
LIPASE [2]: 10.5 u/L
PHOSPHORUS [2]: 10.38 mg/dL
POTASSIUM [2]: 6.11 MEQ/L
SODIUM [2]: 145.55 MEQ/L
TOTAL BILIRUBIN [2]: 0.17 mg/dL
TOTAL PROTEIN [2]: 5.98 G/DL
URIC ACID [2]: 0.93 mg/dL
ABSOLUTE BASOPHIL [3]: 0 CELLS/uL
ABSOLUTE EOSINOPHIL [3]: 116.33 CELLS/uL
ABSOLUTE LYMPHOCYTE [3]: 13980 CELLS/uL
ABSOLUTE MONOCYTE [3]: 147.67 CELLS/uL
ABSOLUTE SEGMENTED NEUTROPHIL [3]: 1122.67 CELLS/uL
BASOPHIL [3]: 0%
EOSINOPHIL [3]: 0.67%
ERYTHROCYTE COUNT [3]: 5.35 x10E6/uL
HEMATOCRIT [3]: 33.67%
HEMOGLOBIN [3]: 13.37 G/DL
LEUKOCYTE COUNT [3]: 15.37 x10E3/uL
LYMPHOCYTE [3]: 90.33%
MEAN CORPUSCULAR HEMOGLOBIN [3]: 25 pg
MEAN CORPUSCULAR HEMOGLOBIN CONCENTRATION [3]: 39.73 G/DL
MEAN CORPUSCULAR VOLUME [3]: 62.97 fL
MONOCYTE [3]: 1%
NEUTROPHIL [3]: 8%
NUCLEATED RED BLOOD CELLS [3]: 0 /100WBC
PLATELET COUNT [3]: 1183 x10E3/uL
ALANINE AMINOTRANSFERASE [3]: 54 u/L
ALBUMIN [3]: 3.97 G/DL
ALKALINE PHOSPHATASE [3]: 325.67 u/L
ASPARTATE AMINOTRANSFERASE [3]: 90 u/L
BLOOD UREA NITROGEN [3]: 18 mg/dL
CARBON DIOXIDE [3]: 24.33 mmol/L
CHLORIDE [3]: 103.67 MEQ/L
CHOLESTEROL [3]: 61.33 mg/dL
CREATINE PHOSPHOKINASE [3]: 372 u/L
CREATININE [3]: 0.12 mg/dL
GLUCOSE [3]: 163.33 mg/dL
LACTATE DEHYDROGENASE [3]: 339 u/L
LIPASE [3]: 8.67 u/L
PHOSPHORUS [3]: 11.87 mg/dL
POTASSIUM [3]: 5.76 MEQ/L
SODIUM [3]: 143.73 MEQ/L
TOTAL BILIRUBIN [3]: 0.2 mg/dL
TOTAL PROTEIN [3]: 5.77 G/DL
URIC ACID [3]: 1.13 mg/dL
